The target in this assay is Tyrosine-protein kinase BTK (Homo sapiens, UniProt Q06187). In words: Btk Enzyme Activity Assay: BTK enzymatic activity was determined with the LANCE (Lanthanide Chelate Excite) TR-FRET (Time-resolved fluorescence resonance energy transfer) assay. […] Phosphorylation reactions were allowed to proceed for 120 minutes. […] After 60 minutes incubation with detection reagents, reaction plates were read on a PerkinElmer EnVision plate reader using standard TR-FRET protocol. […] IC50 values were determined by 4 parameter robust fit of TR-FRET ratio values vs. (Log10)) compound concentrations.
Tyrosine-protein kinase BTK, sequence (Q06187 whole entry): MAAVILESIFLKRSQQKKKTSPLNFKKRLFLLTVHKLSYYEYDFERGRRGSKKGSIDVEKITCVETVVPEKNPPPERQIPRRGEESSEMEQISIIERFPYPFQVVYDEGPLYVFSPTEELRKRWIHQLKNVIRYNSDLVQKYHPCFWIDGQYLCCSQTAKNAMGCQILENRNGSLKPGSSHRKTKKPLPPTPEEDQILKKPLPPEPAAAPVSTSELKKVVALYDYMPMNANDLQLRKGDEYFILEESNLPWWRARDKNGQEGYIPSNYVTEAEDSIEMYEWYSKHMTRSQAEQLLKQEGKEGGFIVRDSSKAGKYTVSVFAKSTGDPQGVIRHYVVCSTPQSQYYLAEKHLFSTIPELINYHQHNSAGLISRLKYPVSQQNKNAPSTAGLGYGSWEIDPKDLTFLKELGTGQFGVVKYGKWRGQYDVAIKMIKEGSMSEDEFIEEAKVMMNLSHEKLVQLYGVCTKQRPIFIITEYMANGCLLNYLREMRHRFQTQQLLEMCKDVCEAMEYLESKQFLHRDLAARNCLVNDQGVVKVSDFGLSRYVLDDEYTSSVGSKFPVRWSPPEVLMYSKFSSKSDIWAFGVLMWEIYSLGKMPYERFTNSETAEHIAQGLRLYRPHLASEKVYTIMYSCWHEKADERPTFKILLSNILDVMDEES

`Nc1nccn2c([C@@H]3CC[C@@H](CC(=O)O)C3)nc(-c3ccc(C(=O)Nc4cc(C(F)(F)F)ccn4)cc3)c12`: the IC50 (in general, the concentration at which inhibition is half-maximal) is 160 pM.

The values above are taken from ChEMBL document CHEMBL5725743, “Benzamide imidazopyrazine Btk inhibitors” (2018).
